From patent publication US5424303A, “Substituted aminophosphonate derivatives, process for their preparation and pharmaceutical compositions containing them” (Symphar SA, priority 1992, dated 1995)
Counter-ions that a name gives are not always drawn.

Tests used:
HMGCoA reductase = test: Inhibition of the enzyme HMGCoA reductase; assay type: biochemical; settings: positive control
Hep G2 cells = test: Incorporation of 14C acetate in cholesterol synthesized by Hep G2 cells; assay type: cell-based; settings: positive control
CaCo-2 = assay type: cell-based
From the text: In these two tests the positive control Lovastatin (hypocholesterolemic drug with HMGCoA reductase inhibitory activity) inhibits the enzyme and the ^14 C acetate incorporation by more than 98%. The mechanism of hypocholesterolemia of this class is different and potentially unique.

[1] = tested on: lipid peroxidation (rat liver homogenate); test: Antioxidant activity, inhibition of iron induced lipid peroxidation in liver homogenate; assay type: biochemical, Wistar rat; settings: FeSO4, 37° C., 2 h; <25 μM where IC50 was not determined
Protocol: The liver of a Wistar rat anesthetized with ether was collected and homogenized in 4 volumes of phosphate buffer (+4° C., pH 7.4) by means of a Potter. After centrifugation at 2000 rpm for 10 min the supernatant obtained was kept at +4° C. Lipid peroxidation was carried out in presence of FeSOhd according to the method described by A. T. Quitaniha et at, Ann.
The mixture contained 1.7 ml phosphate buffer, 0.2 ml homogenate and 0.1 ml of a 2 mM FeSO4 solution. The test compounds were added in a volume of 61 μl of ethanol or DMSO. Oxydation was carried out at 37° C. for 2 h and was stopped by the addition of 20 μl of 2% ethanolic solution of BHT.

[2] = tested on: deposition of cholesterol in the arteries; settings: hereditary atherosclerotic rabbits; cited from earlier work
xanthomas = settings: patients suffering from familial hypercholesterolemia; cited from earlier work
plasma cholesterol = test: Hypocholesterolemic activity, plasma cholesterol in mice fed test compound in diet; assay type: in vivo, OF1 strain mice; settings: for change in vivo at 180 mg/kg/day: Mus musculus, feed or water, 240 h, read-out: Plasma Cholesterol (% Control), 0.1% compound in food, 10 days, ca. 180 mg/kg daily, mouse; for decrease plasma cholesterol by: 0.1% in food
Protocol: A. Hypocholesterolemic activity
Mouse fed a normal diet is a convenient model which was proposed by several authors (P. Olivier et al, Atherosclerosis 70, 107-114, 1988) ,for the screening for hypocholesterolemic drugs. OF1 strain mice (Iffa Credo) weighing between 25 and 35 g were divided into 5 groups of 5 animals each, four groups received the test compounds and the fifth group served as control. The test compounds were dissolved in diethyl ether. The ether solution was added to food to obtain a final concentration of 0.1%. compound in food. Ether was then evaporated at room temperature. The animals were fed for 10 days, the dally food intake corresponds to ca. 180 mg/kg. After an overnight fast, they were sacrificed by decapitation under ether anesthesia. Blood samples were collected using EDTA as anticoagulant.
Plasma cholesterol was measured by an enzymatic test (DIAMED, Morat, Switzerland). The mean values of each group receiving the test or reference compounds were expressed as percent of mean value of the contemporary control.

SMILES | IC50 [1] [µM] | change in vivo at 180 mg/kg/day (plasma cholesterol) [%] | also measured
CC[C@H](C)C(=O)O[C@H]1C[C@@H](C)C=C2C=C[C@H](C)[C@H](CC[C@@H]3C[C@@H](O)CC(=O)O3)[C@H]21 [Lovastatin] |  |  | inhibition of HMGCoA reductase (HMGCoA reductase): more than 98%; inhibition of 14C acetate incorporation, Hep G2 (Hep G2 cells): more than 98%; inhibition of 14C acetate incorporation, CaCo-2 (CaCo-2): more than 98%
CC(C)(Sc1cc(C(C)(C)C)c(O)c(C(C)(C)C)c1)Sc1cc(C(C)(C)C)c(O)c(C(C)(C)C)c1 [Probucol] | > 25 |  | effect on deposition of cholesterol in the arteries (in words) [2]: prevents the deposition of cholesterol in the arteries; effect on xanthomas (in words) (xanthomas): induces the regression of xanthomas
CCOP(=O)(OCC)C(NCCCc1ccccc1)c1cc(C(C)(C)C)c(O)c(C(C)(C)C)c1 (stereo not drawn) [Compound 26, Hydrochloride salt of diethyl α-(3,5-di-tert-butyl-4-hydroxyphenyl),N-(3-phenylpropyl)-animomethylphosphonate] | < 25 |  | Plasma Cholesterol (% Control) (plasma cholesterol; 0.1% compound in food, 10 days, ca. 180 mg/kg daily, mouse): -11 % Control
CCOP(=O)(OCC)C(Nc1cccnc1)c1cc(C(C)(C)C)c(O)c(C(C)(C)C)c1 (stereo not drawn) [Compound 41] | 3.5 | -35 | 
CCOP(=O)(OCC)C(Nc1ccc(O)cc1)c1cc(C(C)(C)C)c(O)c(C(C)(C)C)c1 (stereo not drawn) [Compound 4] | 4.1 | -15 | 
CCOP(=O)(OCC)C(NCc1ccccc1)c1cc(C(C)(C)C)c(O)c(C(C)(C)C)c1 (stereo not drawn) [Compound 12] | 0.7 | -23 | 
CCOP(=O)(OCC)C(c1cc(C(C)(C)C)c(O)c(C(C)(C)C)c1)N(CCCc1ccccc1)C(C)=O (stereo not drawn) [Compound 60, Diethyl α-(3,5-di-tert-butyl-4-hydroxyphenyl)-N-acetyl-N-(3-phenylpropyl)-aminomethylphosphonate] | 2.6 | -49 | decrease plasma cholesterol by (plasma cholesterol; mouse, 10 days): more than 30%
COP(=O)(OC)C(NCCCc1ccccc1)c1cc(C(C)(C)C)c(O)c(C(C)(C)C)c1 (stereo not drawn) [Compound 21] | < 25 | -33 | decrease plasma cholesterol by (plasma cholesterol; mouse, 10 days): more than 30%
CC(C)OP(=O)(OC(C)C)C(NCCc1ccc(Cl)cc1)c1cc(C(C)(C)C)c(O)c(C(C)(C)C)c1 (stereo not drawn) [Compound 19] | 3 | -33 | decrease plasma cholesterol by (plasma cholesterol; mouse, 10 days): more than 30%
CCOP(=O)(OCC)C(NCCCc1ccccc1)c1ccc(O)c([N+](=O)[O-])c1 (stereo not drawn) [Compound 77] | > 25 | -3 | 
CCOP(=O)(OCC)C(NC1(c2ccccc2)CCCC1)c1cc(C(C)(C)C)c(O)c(C(C)(C)C)c1 (stereo not drawn) [Compound 45, Diethyl α-(3,5-di-tert-butyl-4-hydroxyphenyl)-N-(1-phenylcyclopentyl)-aminomethylphosphonate] | < 25 | -14 | 
CCOP(=O)(OCC)C(NCCOc1ccccc1)c1cc(C(C)(C)C)c(O)c(C(C)(C)C)c1 (stereo not drawn) [Compound 28] | < 25 | 4 | 
CCOP(=O)(OCC)C(NCc1ccccc1)c1ccc(O)c(OC)c1 (stereo not drawn) [Compound 70] | > 25 | -10 | 
CCCOP(=O)(OCCC)C(c1cc(C(C)(C)C)c(O)c(C(C)(C)C)c1)N(CCCc1ccccc1)C(C)=O (stereo not drawn) [Compound 61] | < 25 | -43 | decrease plasma cholesterol by (plasma cholesterol; mouse, 10 days): more than 30%
CCOP(=O)(OCC)C(NC(C)c1cccc2ccccc12)c1cc(C(C)(C)C)c(O)c(C(C)(C)C)c1 (stereo not drawn) [Compound 31] | < 25 | -3 | 
CCOP(=O)(OCC)C(NCCc1ccccc1)c1cc(C)c(O)c(C)c1 (stereo not drawn) [Compound 72] | > 25 | -1 | 
CCOP(=O)(OCC)C(Nc1nc2ccccc2s1)c1cc(C(C)(C)C)c(O)c(C(C)(C)C)c1 (stereo not drawn) [Compound 44, Diethyl α-(3.5-di-tert-butyl-4-hydroxyphenyl)-N-(2-benzothiazolyl)-aminomethylphosphonate] | < 25 | -17 | 
CCOP(=O)(OCC)C(NCCc1ccc(O)cc1)c1cc(C(C)(C)C)c(O)c(C(C)(C)C)c1 (stereo not drawn) [Compound 15] | < 25 | -18 | 

SMILES | IC50 [1] [µM] | change in vivo at 180 mg/kg/day (plasma cholesterol) [%] | also measured
CCOP(=O)(OCC)C(NCCc1ccccn1)c1cc(C(C)(C)C)c(O)c(C(C)(C)C)c1 (stereo not drawn) [Compound 43, Diethyl α-(3,5-di-tert-butyl-4-hydroxyphenyl)-N-[2-(2-pyridyl)-ethyl]aminomethyl-phosphonate] | < 25 | -35 | decrease plasma cholesterol by (plasma cholesterol; mouse, 10 days): more than 30%
CCOP(=O)(OCC)C(NC1CCN(Cc2ccccc2)CC1)c1cc(C(C)(C)C)c(O)c(C(C)(C)C)c1 (stereo not drawn) [Compound 36] | < 25 | -6 | 
CCOP(=O)(OCC)C(NCCCc1ccccc1)c1ccc2c(c1)OCO2 (stereo not drawn) [Compound 80, Diethyl α-(3,4t-methylenedioxyphenyl)-N-(3-phenylpropyl)-aminomethylphosphonate] | > 25 | -29 | 
CC(C)OP(=O)(OC(C)C)C(NCCCc1ccccc1)c1cc(C(C)(C)C)c(O)c(C(C)(C)C)c1 (stereo not drawn) [Compound 24] | < 25 | -22 | 
CCCOP(=O)(OCCC)C(NCCCc1ccccc1)c1cc(C(C)(C)C)c(O)c(C(C)(C)C)c1 (stereo not drawn) [Compound 23] | < 25 | -4 | 
CCOP(=O)(OCC)C(NC(Cc1ccccc1)c1ccccc1)c1cc(C(C)(C)C)c(O)c(C(C)(C)C)c1 (stereo not drawn) [Compound 33] | < 25 | -14 | 
CCOP(=O)(OCC)C(c1cc(C(C)(C)C)c(O)c(C(C)(C)C)c1)N(C)c1ccccc1 (stereo not drawn) [Compound 50] | 2.9 | 5 | 
CCCCCNC(c1cc(C(C)(C)C)c(O)c(C(C)(C)C)c1)P(=O)(OCC)OCC (stereo not drawn) [Compound 2] | 2.5 | -8 | 
CCOP(=O)(OCC)C(NC(C)c1ccccc1)c1cc(C(C)(C)C)c(O)c(C(C)(C)C)c1 (stereo not drawn) [Compound 29, Diethyl α-(3,5-di-tert-butyl-4-hydroxyphenyl)-N-(1-phenylethyl)-aminomethyldiphosphonate] | 5.5 | -32 | decrease plasma cholesterol by (plasma cholesterol; mouse, 10 days): more than 30%
CCOP(=O)(OCC)C(Cc1cc(C(C)(C)C)c(O)c(C(C)(C)C)c1)NCCCc1ccccc1 (stereo not drawn) [Compound 68, Diethyl α-(3,5-di-tert-butyl-4-hydroxybenzyl)-N-(3-phenylpropyl)-aminomethylphosphonate] | < 25 | -18 | 
CCCCOP(=O)(OCCCC)C(c1cc(C(C)(C)C)c(O)c(C(C)(C)C)c1)N(CCCc1ccccc1)C(C)=O (stereo not drawn) [Compound 63] | < 25 | 4 | 
CCCCCc1ccc(NC(c2cc(C(C)(C)C)c(O)c(C(C)(C)C)c2)P(=O)(OCC)OCC)cc1 (stereo not drawn) [Compound 10] | 2.9 | 11 | 
CCCOP(=O)(OCCC)C(NCCc1ccc(Cl)cc1)c1cc(C(C)(C)C)c(O)c(C(C)(C)C)c1 (stereo not drawn) [Compound 18] | 2.9 | -23 | 
CCOP(=O)(OCC)C(NCCCc1ccccc1)c1ccc(O)c(O)c1 (stereo not drawn) [Compound 78] | < 25 | -5 | 
CC(=O)N(CCCc1ccccc1)C(c1cc(C(C)(C)C)c(O)c(C(C)(C)C)c1)P(=O)(OC(C)C)OC(C)C (stereo not drawn) [Compound 62] | < 25 | -32 | decrease plasma cholesterol by (plasma cholesterol; mouse, 10 days): more than 30%
CCOP(=O)(OCC)C(NC1CC(C)(C)NC(C)(C)C1)c1cc(C(C)(C)C)c(O)c(C(C)(C)C)c1 (stereo not drawn) [Compound 35] | > 25 | -17 | 
CCOP(=O)(OCC)C(NCCCc1ccccc1)c1ccc(OC)cc1 (stereo not drawn) [Compound 79] | > 25 | 9 | 
CCOP(=O)(OCC)C(NC(c1ccccc1)c1ccccc1)c1cc(C(C)(C)C)c(O)c(C(C)(C)C)c1 (stereo not drawn) [Compound 32] | < 25 | -12 | 
